Read-outs that look alike come from different tables or passages of the source.
How the values were obtained:
PnaA [1] = details: read-out: Km (apparent); co-substrate oxaloacetate; PLP
PnaD = system: T1, PnaD; assay: coupled spectrophotometric assay, NADH oxidation; PnaD with PnaA; format: biochemical, Streptomyces sp. NRRL S-515; details: two-enzyme system, 5:1 PnaD to PnaA; co-substrate L-Asp; read-out: Km (apparent)
T1 construct: recombinant, purified from E. coli; assayed coupled to PnaA
From the text: coupled spectrophotometric assay, NADH oxidation; PnaD with PnaA on PnaD | apparent steady state parameters for the conversion of PEP to L-PnAla in reactions with PnaD

PnaA [2] = system: T2, PnaA; assay: coupled spectrophotometric assay, NADH oxidation via PnPy reductase VlpB; format: biochemical, Streptomyces sp. NRRL S-515; details: reverse reaction; co-substrate oxaloacetate; PLP; varied substrate not explicitly named in main text; read-out: Km (apparent)
T2 construct: recombinant, purified from E. coli; PLP-dependent
From the text: coupled spectrophotometric assay, NADH oxidation via PnPy reductase VlpB on PnaA | the reverse reaction (transamination of PnAla and OAA to PnPy and Asp)

PnaA [3] = system: T2, PnaA; assay: coupled spectrophotometric assay, NADH oxidation via malate dehydrogenase; format: biochemical, Streptomyces sp. NRRL S-515; details: co-substrate L-Asp; PLP; read-out: Km (apparent)

N[C@@H](CCC(=O)O)C(=O)O [Glu]
Km (PnaA [1]): 7.5 ± 0.7 mM

C=C(OP(=O)(O)O)C(=O)O [PEP]
Km (PnaD): 546 ± 60 µM

N[C@@H](CP(=O)(O)O)C(=O)O [PnAla]
Km (PnaA [2]): 327 ± 40 µM

O=C(O)C(=O)CP(=O)(O)O [PnPy]
Km (PnaA [3]): 4.8 ± 0.4 µM

O=C(O)CCC(=O)C(=O)O [αKG]
Km (PnaA [3]): 899 ± 97 µM

Reference: article PMC11867202, “Phosphonoalamides Reveal the Biosynthetic Origin of Phosphonoalanine Natural Products and a Convergent Pathway for Their Diversification” (Angewandte Chemie (International ed. in English), 2024)
